# US10473645B2, “Methods for identifying a receptor for a ligand and uses thereof” (UNIVERSITE DE GENEVE, priority 2014, dated 2019)
# What was measured:
# olfr145 [1] = biological target: T1, olfr145 (Mus musculus, UniProt Q60882); assay: OR transcript downregulation by RNAseq after in vivo exposure; conditions: 5% odorant, 5 hours
# T1 construct: from tissue; host or cells: main olfactory epithelium of living mice
# Protocol: Animals were exposed to 5% acetophenone for 5 hours before RNA extraction (as previously described). cDNA libraries were generated with the Truseq RNA and DNA sample preparation kits after selection of polyA-containing mRNAs. Adapters for RNAseq multiplexing were added to the cDNAs. The cDNA libraries were sequenced with a HiSeq®2500 Sequencing system. 100 bp reads were mapped using Bowtie2 with a 28 bp seed. The differential gene expression analyses were performed with DESeq2. Because of the high sequence similarity between OR gene paralogs, some reads are mapped to multiple OR genes. These reads were removed from the analysis.
# (§1) Mice (n=6) were exposed to 5% acetophenone or to a “neutral” control condition for 5 hours. An olfactory cDNA library corresponding to each animal was deep sequenced and the ratios of odorant receptor mRNA concentrations relative to controls were plotted (FIG. 3). […] Based on transcriptional downregulation levels observed by RNAseq following acetophenone exposure, a list of 26 candidate responsive ORs was determined (FIG. 3), that reached 74% decrease (Olfr145) or even over 80% (Olfr169) relative to controls. […] The transcript downregulation of 21 out of the 26 olfactory receptor candidates obtained by RNAseq was confirmed by qPCR.
# Olfr1178 = assay: OR transcript level by RT-qPCR after in vivo odorant exposure; set-up: species or system mouse; conditions: 5% odorant, 5 hours
# Protocol: (§2) In vivo exposure to odorant: Starting 48 h before experiments, mice were habituated to pure DMSO on a cotton ball. 200 μl were pipetted directly onto the cotton and placed in the cage, replacing any cotton that was already in the cage for nest-making purposes.
# On the day of the experiment, mice receiving odorants were transferred to a different room, where they were exposed to a cotton ball on which 200 μl of odorant diluted in pure DMSO were deposited. Exposures started in the morning between 8 and 10 am (that is two hours after lights were on) and mice were killed and dissected between 1 and 3 pm. […]
# RNA concentrations were determined using an Amersham Ultrospec® 3100 Pro spectrophotometer, and RNA quality was evaluated with an Agilent Technologies 2100 Bioanalyzer®. […]
# qPCR Ct values were analyzed using an in-house developed Microsoft Excel® macro file. […] Ct values were converted to quantities relative to the maximum for each given gene. Selected reference genes were then analyzed for variance using the geNorm algorithm. […]
# Adult C57BL/6 mice were exposed to 5% acetophenone for 5 hours, and the level of transcripts of odorant receptors' genes were measured by RT-qPCR on extracts of olfactory epithelia from these mice, as described in the materials and methods section.
# olfr476 = biological target: T2, olfr476 (Mus musculus, UniProt Q8VGI4); assay: as above; set-up: key: The transcript downregulation of 21 out of the 26 olfactory receptor candidates obtained by RNAseq was confirmed by qPCR; false RNAseq positive candidates, namely OR candidates for which in fact mRNA was not downregulated following acetophenone exposure; conditions: 5% acetophenone exposure
# T2 construct: from tissue; host or cells: main olfactory epithelium of living mice
# T2 sequence (Q8VGI4 whole entry): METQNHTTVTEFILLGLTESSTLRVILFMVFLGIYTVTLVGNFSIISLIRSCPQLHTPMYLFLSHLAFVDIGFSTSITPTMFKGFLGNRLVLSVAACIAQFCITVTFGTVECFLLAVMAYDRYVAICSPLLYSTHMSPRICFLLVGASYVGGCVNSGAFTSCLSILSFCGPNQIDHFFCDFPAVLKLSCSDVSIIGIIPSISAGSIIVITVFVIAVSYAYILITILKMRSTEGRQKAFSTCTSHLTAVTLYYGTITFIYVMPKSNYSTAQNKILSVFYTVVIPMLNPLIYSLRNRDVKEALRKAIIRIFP
# Protocol: as §2
# (§3) On the day of the experiment, mice receiving odorants were transferred to a different room, where they were exposed to a cotton ball on which 200 μl of odorant diluted in pure DMSO were deposited. Exposures started in the morning between 8 and 10 am (that is two hours after lights were on) and mice were killed and dissected between 1 and 3 pm. […] If a number of different odorants were tested in the same experiment, a different overpressurized room would always be used for each odorant to avoid odor cross-contamination.
# (§4) After odorant exposure, mice were killed by cervical dislocation and immediately decapitated. The main olfactory epithelia (MOE), were harvested in their entirety and transferred to a tube containing 600 μl of lysis buffer and β-mercaptoethanol (RNAeasy kit, Qiagen, following the manufacturer protocol) and a 0.5 cm diameter steel ball, and then put on ice. Samples were then homogenized using a FastPrep®-24 instrument (MP Biomedicals) at 6 m/s for 30 s and left on ice. RNA extraction was performed on all samples in parallel using the Qiagen RNeasy Mini® kit following the manufacturer's instructions. Two DNase treatments were performed on all samples: first using the Qiagen RNase-Free DNase Set® and then using the Life Technologies Ambion DNase I® kit. RNA samples were then aliquoted and stored at −80° C.
# (§5) RNA concentrations were determined using an Amersham Ultrospec® 3100 Pro spectrophotometer, and RNA quality was evaluated with an Agilent Technologies 2100 Bioanalyzer®. Each reverse transcription was performed with 0.5 μg RNA using the Takara Primescript® kit, in a final volume of 10 μl. Primers for reverse transcription were equal mixtures of poly-T nucleotides and random hexamers. Negative controls (omitting the reverse transcriptase enzyme) were performed for each sample. 1/14th of the cDNA preparation was used for each triplicated qPCR reaction.
# (§6) qPCR Ct values were analyzed using an in-house developed Microsoft Excel® macro file. Triplicate values were compared and outliers (values with a difference higher than 0.5 Ct to their nearest neighbor) were discarded. The number of conditions with an outlying value was always less than 10% of the total number of conditions. Ct values were converted to quantities relative to the maximum for each given gene. Selected reference genes were then analyzed for variance using the geNorm algorithm. All values were normalized with the olfactory tissue-specific genes Omp and Adcy3. β-Actin was used as a non-tissue-specific reference gene to control for differences in dissection between samples.
# as §1
# olfr145 [2] = biological target: T1, olfr145; assay: as above; set-up: key: The transcript downregulation of 21 out of the 26 olfactory receptor candidates obtained by RNAseq was confirmed by qPCR; false RNAseq positive candidates, namely OR candidates for which in fact mRNA was not downregulated following acetophenone exposure; conditions: 5% acetophenone exposure
# Protocol: as §2, §3, §4, §5, §6, §1
# olfr1135 = assay: as above; set-up: species or system mouse; key: The transcript downregulation of 21 out of the 26 olfactory receptor candidates obtained by RNAseq was confirmed by qPCR; false RNAseq positive candidates, namely OR candidates for which in fact mRNA was not downregulated following acetophenone exposure; conditions: 5% acetophenone exposure
# Protocol: as §2, §3, §4, §5, §6, §1
# olfr1448 = assay: as above; set-up: species or system mouse; key: The transcript downregulation of 21 out of the 26 olfactory receptor candidates obtained by RNAseq was confirmed by qPCR; false RNAseq positive candidates, namely OR candidates for which in fact mRNA was not downregulated following acetophenone exposure; conditions: 5% acetophenone exposure
# Protocol: as §2, §3, §4, §5, §6, §1
# olfr745 = assay: as above; set-up: species or system mouse; key: The transcript downregulation of 21 out of the 26 olfactory receptor candidates obtained by RNAseq was confirmed by qPCR; false RNAseq positive candidates, namely OR candidates for which in fact mRNA was not downregulated following acetophenone exposure; conditions: 5% acetophenone exposure
# Protocol: as §2, §3, §4, §5, §6, §1
# olfr1501 = assay: as above; set-up: species or system mouse; key: The transcript downregulation of 21 out of the 26 olfactory receptor candidates obtained by RNAseq was confirmed by qPCR; false RNAseq positive candidates, namely OR candidates for which in fact mRNA was not downregulated following acetophenone exposure; conditions: 5% acetophenone exposure
# Protocol: as §2, §3, §4, §5, §6, §1
# olfr935 = assay: as above; set-up: species or system mouse; key: The transcript downregulation of 21 out of the 26 olfactory receptor candidates obtained by RNAseq was confirmed by qPCR; false RNAseq positive candidates, namely OR candidates for which in fact mRNA was not downregulated following acetophenone exposure; conditions: 5% acetophenone exposure
# Protocol: as §2, §3, §4, §5, §6, §1
# olfr229 = assay: as above; set-up: species or system mouse; key: The transcript downregulation of 21 out of the 26 olfactory receptor candidates obtained by RNAseq was confirmed by qPCR; false RNAseq positive candidates, namely OR candidates for which in fact mRNA was not downregulated following acetophenone exposure; conditions: 5% acetophenone exposure
# Protocol: as §2, §3, §4, §5, §6, §1
# T1 sequence (Q60882 whole entry): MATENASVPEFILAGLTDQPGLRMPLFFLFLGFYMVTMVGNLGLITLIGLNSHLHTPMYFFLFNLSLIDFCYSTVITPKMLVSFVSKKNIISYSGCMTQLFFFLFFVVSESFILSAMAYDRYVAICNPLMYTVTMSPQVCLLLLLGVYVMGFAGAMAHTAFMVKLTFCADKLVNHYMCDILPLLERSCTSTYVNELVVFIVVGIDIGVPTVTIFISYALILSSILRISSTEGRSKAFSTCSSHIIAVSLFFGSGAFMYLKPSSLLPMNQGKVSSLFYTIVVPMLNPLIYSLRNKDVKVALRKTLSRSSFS
compound,measurement,setting,value
CC(=O)c1ccccc1 [acetophenone],Olfr145 transcript decrease relative to controls (RNAseq),olfr145 [1],74%
same,"Olfr1178 mRNA concentration increase, fold change",Olfr1178,1.5 fold
same,olfr476 candidate OR (RNAseq) confirmed by qPCR,olfr476,y
same,olfr145 candidate OR (RNAseq) confirmed by qPCR,olfr145 [2],y
same,olfr1135 candidate OR (RNAseq) confirmed by qPCR,olfr1135,n
same,olfr1448 candidate OR (RNAseq) confirmed by qPCR,olfr1448,y
same,olfr745 candidate OR (RNAseq) confirmed by qPCR,olfr745,y
same,olfr1501 candidate OR (RNAseq) confirmed by qPCR,olfr1501,y
same,olfr935 candidate OR (RNAseq) confirmed by qPCR,olfr935,y
same,olfr229 candidate OR (RNAseq) confirmed by qPCR,olfr229,y
